Data published in PubChem BioAssay AID1963434 (Molecular Pharmacology Branch, DTP, NCI, 2024).

Tested on: 755483-174-R-J1-PDC complex spheroid growth, percent test/control
Assay: Anticancer human tumor 755483-174-R-J1-PDC patient-derived rhabdomyosarcoma cell line growth inhibition [Asc]
Conditions: for IC50: curve of first compound; for viability, T/C: stronger effect = lower value
Method in brief: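 Tumor cells were grown as complex spheroids with human endothelial cells (HUVEC) and human mesenchymal stem cells as stroma. Agents were tested alone and in combination, in half-log steps down from the clinical Cmax, or from 10 microM where Cmax was unknown.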
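Further: spheroids exposed to compounds for seven days before readout.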

Q: What does the source list for `Cc1nc(N2CCC3(CC2)COC(C)C3N)c(CO)nc1Sc1ccnc(N)c1Cl` (stereo not given) + CCN1C(C(=O)NC23CCC(C(=O)O)(CC2)CC3)C(c2cccc(Cl)c2F)C2(C(=O)Nc3cc(Cl)ccc32)C12CCCCC2?
A: IC50 (second compound 0.03 µM): 442 nM; IC50 (second compound 0.0949 µM): 371 nM; IC50 (second compound 0.3 µM): 387 nM; IC50 (second compound 0.949 µM): 232 nM; IC50 (second compound 3 µM): 315 nM; viability, T/C (second compound 0.03 µM, first compound 0.00949 µM): 111%; viability, T/C (second compound 0.03 µM, first compound 0.03 µM): 93.4%; viability, T/C (second compound 0.03 µM, first compound 0.0949 µM): 80.7%; viability, T/C (second compound 0.03 µM, first compound 0.3 µM): 58.6%; viability, T/C (second compound 0.03 µM, first compound 0.949 µM): 33.4%; viability, T/C (second compound 0.03 µM, first compound 3 µM): 19.6%; viability, T/C (second compound 0.0949 µM, first compound 0.00949 µM): 113%; viability, T/C (second compound 0.0949 µM, first compound 0.03 µM): 106%; viability, T/C (second compound 0.0949 µM, first compound 0.0949 µM): 106%; viability, T/C (second compound 0.0949 µM, first compound 0.3 µM): 52.9%; viability, T/C (second compound 0.0949 µM, first compound 0.949 µM): 39.2%; viability, T/C (second compound 0.0949 µM, first compound 3 µM): 21.1%; viability, T/C (second compound 0.3 µM, first compound 0.00949 µM): 89.5%; viability, T/C (second compound 0.3 µM, first compound 0.03 µM): 87.6%; viability, T/C (second compound 0.3 µM, first compound 0.0949 µM): 62.1%; viability, T/C (second compound 0.3 µM, first compound 0.3 µM): 51.6%; viability, T/C (second compound 0.3 µM, first compound 0.949 µM): 42.5%; viability, T/C (second compound 0.3 µM, first compound 3 µM): 18.5%; viability, T/C (second compound 0.949 µM, first compound 0.00949 µM): 105%; viability, T/C (second compound 0.949 µM, first compound 0.03 µM): 82.9%; viability, T/C (second compound 0.949 µM, first compound 0.0949 µM): 84.1%; viability, T/C (second compound 0.949 µM, first compound 0.3 µM): 40.1%; viability, T/C (second compound 0.949 µM, first compound 0.949 µM): 24.9%; viability, T/C (second compound 0.949 µM, first compound 3 µM): 27.1%; viability, T/C (second compound 3 µM, first compound 0.00949 µM): 111%; viability, T/C (second compound 3 µM, first compound 0.03 µM): 82.9%; viability, T/C (second compound 3 µM, first compound 0.0949 µM): 71.9%; viability, T/C (second compound 3 µM, first compound 0.3 µM): 50.1%; viability, T/C (second compound 3 µM, first compound 0.949 µM): 34.3%; viability, T/C (second compound 3 µM, first compound 3 µM): 21.1%

Q: What does the source list for `COc1c(OCCCN2CCOCC2)ccc2c3n(c(=NC(=O)c4cnc(N)nc4)nc12)CCN3` + CCN1C(C(=O)NC23CCC(C(=O)O)(CC2)CC3)C(c2cccc(Cl)c2F)C2(C(=O)Nc3cc(Cl)ccc32)C12CCCCC2?
A: IC50 (second compound 0.03 µM): 31.3 nM; IC50 (second compound 0.0949 µM): 13.7 nM; IC50 (second compound 0.3 µM): 31.2 nM; IC50 (second compound 0.949 µM): 26.2 nM; IC50 (second compound 3 µM): 41.7 nM; viability, T/C (second compound 0.03 µM, first compound 0.00316 µM): 70.7%; viability, T/C (second compound 0.03 µM, first compound 0.01 µM): 70.5%; viability, T/C (second compound 0.03 µM, first compound 0.0316 µM): 49.1%; viability, T/C (second compound 0.03 µM, first compound 0.1 µM): 19.2%; viability, T/C (second compound 0.03 µM, first compound 0.316 µM): 8.52%; viability, T/C (second compound 0.03 µM, first compound 1 µM): 6.46%; viability, T/C (second compound 0.0949 µM, first compound 0.00316 µM): 75.5%; viability, T/C (second compound 0.0949 µM, first compound 0.01 µM): 39.5%; viability, T/C (second compound 0.0949 µM, first compound 0.0316 µM): 48.5%; viability, T/C (second compound 0.0949 µM, first compound 0.1 µM): 25.9%; viability, T/C (second compound 0.0949 µM, first compound 0.316 µM): 25.9%; viability, T/C (second compound 0.0949 µM, first compound 1 µM): 7.18%; viability, T/C (second compound 0.3 µM, first compound 0.00316 µM): 82.1%; viability, T/C (second compound 0.3 µM, first compound 0.01 µM): 89.5%; viability, T/C (second compound 0.3 µM, first compound 0.0316 µM): 46.3%; viability, T/C (second compound 0.3 µM, first compound 0.1 µM): 22.7%; viability, T/C (second compound 0.3 µM, first compound 0.316 µM): 12.7%; viability, T/C (second compound 0.3 µM, first compound 1 µM): 5.77%; viability, T/C (second compound 0.949 µM, first compound 0.00316 µM): 75.7%; viability, T/C (second compound 0.949 µM, first compound 0.01 µM): 64.9%; viability, T/C (second compound 0.949 µM, first compound 0.0316 µM): 45.9%; viability, T/C (second compound 0.949 µM, first compound 0.1 µM): 30.7%; viability, T/C (second compound 0.949 µM, first compound 0.316 µM): 12.1%; viability, T/C (second compound 0.949 µM, first compound 1 µM): 9.33%; viability, T/C (second compound 3 µM, first compound 0.00316 µM): 53.2%; viability, T/C (second compound 3 µM, first compound 0.01 µM): 64.1%; viability, T/C (second compound 3 µM, first compound 0.0316 µM): 59.9%; viability, T/C (second compound 3 µM, first compound 0.1 µM): 21.3%; viability, T/C (second compound 3 µM, first compound 0.316 µM): 13.8%; viability, T/C (second compound 3 µM, first compound 1 µM): 7.35%
